Test results reported in patent US7078398B2, “Compositions and methods for treating or preventing convulsions or seizures” (Vela Pharamaceuticals, Inc., priority 2001, dated 2006).
Entries after “also recorded” stand apart in the source; their conditions may differ. Like-named read-outs stand apart in the source and are kept apart here.

Assays:
[1] = tested on: picrotoxin-induced seizures in male NSA mice; experiment: animal or person; type: in vivo; conditions: for anti-convulsant activity against picrotoxin-induced seizures (conclusion): NSA mice; for ED50: Mus musculus; for ED50 / ED50 (95% confidence limit): i.p. 15 minutes prior to picrotoxin 5 mg/kg s.c.
Method: Anticonvulsant activity against picrotoxin-induced seizures is considered evidence of clinical antiepileptic potential and reason for further evaluation of a test compound's anticonvulsant profile (Swinyard, E. A. et al., General principles: experimental detection, quantification and evaluation of anticonvulsants. In: Antiepileptic Drugs, D. M. Woodbury et al., eds. Raven Press, New York (1990) pp. 111–126).
Picrotoxin (5 mg/kg, Sigma Chem. Co., St. Louis, Mo., USA) was dissolved in saline and administered subcutaneously to induce seizures. In addition, picrotoxin alone was administered to seven animals as a control. All test drugs were dissolved in dimethylsulfoxide (DMSO).
After picrotoxin injection, mice were placed into a plexiglass cage for 30 minutes of observation. The appearance of seizures was defined as the presence of a single episode of clonic or tonic activity (including myoclonic jerks) during the 30 minute observation period. […] Animals were euthanized immediately after the observation period by CO2 inhalation. The ED50 (the dose of test compound at which half of the animals were protected against picrotoxin-induced seizures) values and their 95% confidence limits were calculated by the method of Litchfield and Wilcoxon (J. Pharmacol. Exp. Ther. 96:99–113 (1949)).

[2] = tested on: convulsions induced by the compound Ro 5-4864 in mice; conditions: 100 mg/kg; cited from earlier work
[3] = tested on: picrotoxin convulsions in Tuck No. 1 mice; conditions: cited from earlier work
[4] = tested on: pentylenetetrazole convulsions in Tuck No. 1 mice; conditions: cited from earlier work
[5] = tested on: convulsions induced by tryptamine in mice; conditions: Table 6 of Ito; cited from earlier work
[6] = Example 2, enantiomers of Example 1, 30 minute observation
[7] = Example 4, enantiomers of Example 3

CCC1C(C)=NN=C(c2ccc(OC)c(OC)c2)c2cc(OC)c(OC)cc21 (racemic) [tofisopam, 1-(3,4-dimethoxy-phenyl)-4-methyl-5-ethyl-7,8-dimethoxy-5H-2,3-benzodiazepine]
anti-convulsant activity against picrotoxin-induced seizures (conclusion) ([1]; Example 2): intrinsic anti-convulsant activity
anti-convulsant activity (conclusion) ([1]; Example 4): intrinsic anti-convulsant activity
ED50 ([1]; read-out: ED50 (95% confidence limit), Example 2, enantiomers of Example 1, 30 minute observation): 37.8 mg/kg
ED50 ([1]; read-out: ED50 (95% confidence limit), Example 4, enantiomers of Example 3): 51.4 mg/kg
myoclonic jerks in treated mice [2]: all of the treated mice still experienced myoclonic jerks
number of mice having convulsions [2]: reduced the number of mice having convulsions
number or severity of convulsions ([3]; 10–50 mg/kg, 6 mg/kg of picrotoxin): no affect
effect in combination with 3 mg/kg picrotoxin ([3]; 25–50 mg/kg): proconvulsant activity
effect as an anti-convulsant ([4]; 10–25 mg/kg, 60 mg/kg of pentylenetetrazole): no effect
effect in combination with 30 mg/kg pentylenetetrazole ([4]; 25–50 mg/kg): proconvulsant activity
incidence of convulsions [5]: no effect

CC[C@H]1C(C)=NN=C(c2ccc(OC)c(OC)c2)c2cc(OC)c(OC)cc21 [R-tofisopam]
anti-convulsant activity against picrotoxin-induced seizures (conclusion) ([1]; Example 2): no anti-convulsant activity
inhibition of picrotoxin-induced convulsions ([1]; Example 2, at either 20 or 50 mg/kg i.p.): did not inhibit
ED50 (95% confidence limit) [1, 6]: Inactive
protection against picrotoxin-induced seizures ([1]; Example 4, 90 mg/kg): no further increase in protection
protection against picrotoxin-induced seizures ([1]; Example 4, 128 mg/kg): no protection
protection from picrotoxin-induced seizures, all doses tested ([1]; Example 4, 32-128 mg/kg): < 50%
anticonvulsant activity ([1]; Example 4, doses of 32 mg/kg and 64 mg/kg): exhibits anticonvulsant activity
ED50 (95% confidence limit) [1, 7]: could not be calculated; also recorded: not calculable

CC[C@@H]1C(C)=NN=C(c2ccc(OC)c(OC)c2)c2cc(OC)c(OC)cc21 [S-tofisopam]
protection against picrotoxin-induced seizures ([1]; Example 2, 40 mg/kg i.p.): over 60%
anti-convulsant activity against picrotoxin-induced seizures (conclusion) ([1]; Example 2): intrinsic anti-convulsant activity
ED50 (95% confidence limit) [1, 6]: ~35 (28–43) mg/kg
anti-convulsant activity (conclusion) ([1]; Example 4): intrinsic anti-convulsant activity
anti-convulsant activity compared with the racemate ([1]; Example 4, highly pure S-tofisopam): significantly greater anti-convulsant activity
ED50 (95% confidence limit) [1, 7]: 15.1 (7.6–30.1) mg/kg
